# From patent US12441733B2, “Substituted 2,4-dioxotetrahydropyrimidines as intermediates in the synthesis of bruton's tyrosine kinase inhibitors” (Novartis AG, priority 2018, dated 2025)
# Molecular target: T1, BTK-GFP (Homo sapiens, UniProt Q06187+Q96SW2)
# T1 construct: expressed in transfected cells; host or cells: HEK293A (Invitrogen R70507), lentiviral transduction with pLenti6-BTK-GFP-Ires-RFP, blasticidin selection
# Test: BTK-GFP protein abundance flow cytometry assay in HEK293A cells
# Type: cell-based
# Settings: HEK293A BTK-GFP-iresRFP cells, 24 h; for DC50: GFP signal by flow cytometry, concentration at which 50% maximal degradation was observed; for BTK deg Amax: % protein remaining at the concentration at which maximum degradation is seen
# Procedure, shortened: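 HEK293A cells stably expressing bicistronic BTK-GFP-IRES-RFP (C-terminal GFP tag) via lentiviral vector. Degradation read by flow cytometry as loss of GFP signal after degrader treatment. DC50 is concentration giving 50% maximal degradation; Amax is % protein remaining at maximal degradation.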
# T1 sequence (Q06187 whole entry): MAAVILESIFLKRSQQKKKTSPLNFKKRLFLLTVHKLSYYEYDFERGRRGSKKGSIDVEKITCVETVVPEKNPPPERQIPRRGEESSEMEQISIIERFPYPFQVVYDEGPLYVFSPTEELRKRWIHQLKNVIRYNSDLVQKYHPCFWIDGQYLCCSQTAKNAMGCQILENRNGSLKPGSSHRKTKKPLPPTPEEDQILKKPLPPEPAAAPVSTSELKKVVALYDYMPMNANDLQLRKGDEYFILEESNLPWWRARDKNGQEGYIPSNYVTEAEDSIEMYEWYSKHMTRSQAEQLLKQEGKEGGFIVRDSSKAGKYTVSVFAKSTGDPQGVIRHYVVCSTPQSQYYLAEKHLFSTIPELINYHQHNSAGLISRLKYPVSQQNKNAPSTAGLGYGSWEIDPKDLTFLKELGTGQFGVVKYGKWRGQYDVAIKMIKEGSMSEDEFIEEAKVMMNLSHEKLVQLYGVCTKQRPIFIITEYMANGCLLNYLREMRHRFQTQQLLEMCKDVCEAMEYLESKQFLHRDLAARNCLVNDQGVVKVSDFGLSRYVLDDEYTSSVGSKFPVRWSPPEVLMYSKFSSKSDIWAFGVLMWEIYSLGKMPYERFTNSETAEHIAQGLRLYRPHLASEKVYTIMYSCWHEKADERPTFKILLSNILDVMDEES
# T1 sequence (Q96SW2 whole entry): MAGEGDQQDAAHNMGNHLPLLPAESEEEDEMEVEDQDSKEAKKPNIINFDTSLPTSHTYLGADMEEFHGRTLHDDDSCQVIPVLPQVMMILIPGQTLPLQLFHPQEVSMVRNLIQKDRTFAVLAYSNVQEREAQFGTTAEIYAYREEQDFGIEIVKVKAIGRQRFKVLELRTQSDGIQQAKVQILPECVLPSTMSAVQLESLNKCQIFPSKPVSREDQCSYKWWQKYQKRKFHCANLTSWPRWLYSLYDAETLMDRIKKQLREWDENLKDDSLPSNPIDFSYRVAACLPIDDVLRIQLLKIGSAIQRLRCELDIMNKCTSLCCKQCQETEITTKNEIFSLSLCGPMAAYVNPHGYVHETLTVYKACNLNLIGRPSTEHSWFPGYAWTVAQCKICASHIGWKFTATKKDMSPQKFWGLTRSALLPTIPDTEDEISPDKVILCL
# T1 sequence (Q16531 whole entry partner): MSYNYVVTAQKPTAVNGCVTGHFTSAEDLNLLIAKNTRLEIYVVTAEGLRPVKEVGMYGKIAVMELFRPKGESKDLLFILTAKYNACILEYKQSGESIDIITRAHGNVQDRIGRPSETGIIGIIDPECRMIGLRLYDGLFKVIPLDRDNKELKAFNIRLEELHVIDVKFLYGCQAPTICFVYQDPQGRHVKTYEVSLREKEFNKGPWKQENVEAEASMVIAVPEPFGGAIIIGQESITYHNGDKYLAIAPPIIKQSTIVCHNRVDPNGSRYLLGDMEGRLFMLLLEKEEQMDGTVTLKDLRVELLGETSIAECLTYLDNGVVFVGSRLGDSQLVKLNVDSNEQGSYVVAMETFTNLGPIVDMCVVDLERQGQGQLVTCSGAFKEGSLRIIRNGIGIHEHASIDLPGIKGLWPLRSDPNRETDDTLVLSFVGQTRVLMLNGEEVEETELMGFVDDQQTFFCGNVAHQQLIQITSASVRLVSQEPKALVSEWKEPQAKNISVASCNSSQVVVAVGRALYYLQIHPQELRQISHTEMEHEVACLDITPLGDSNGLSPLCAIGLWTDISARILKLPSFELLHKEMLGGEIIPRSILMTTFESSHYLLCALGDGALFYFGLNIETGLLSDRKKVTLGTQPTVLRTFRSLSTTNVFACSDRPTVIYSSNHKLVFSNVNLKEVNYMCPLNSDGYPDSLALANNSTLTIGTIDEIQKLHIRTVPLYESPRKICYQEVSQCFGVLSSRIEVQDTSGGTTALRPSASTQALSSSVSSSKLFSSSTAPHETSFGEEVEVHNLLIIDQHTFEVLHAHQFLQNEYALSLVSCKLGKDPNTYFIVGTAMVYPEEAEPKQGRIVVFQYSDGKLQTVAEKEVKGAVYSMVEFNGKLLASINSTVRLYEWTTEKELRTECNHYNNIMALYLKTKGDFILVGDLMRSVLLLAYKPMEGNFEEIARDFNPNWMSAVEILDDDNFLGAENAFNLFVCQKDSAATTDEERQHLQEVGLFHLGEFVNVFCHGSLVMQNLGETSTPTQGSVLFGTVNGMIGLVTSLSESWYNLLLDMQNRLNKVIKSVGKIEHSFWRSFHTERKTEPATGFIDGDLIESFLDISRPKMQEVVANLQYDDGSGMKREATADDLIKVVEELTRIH
SMILES,DC50 [nM],BTK deg Amax [%]
"Cc1c(NC(=O)c2ccc(C(C)(C)O)cc2F)cc(F)cc1-c1ncnc2[nH]c(-c3ccc(CCN4CCC5(CC4)CCN(C(=O)c4cccc(N6CCC(=O)NC6=O)c4)CC5)cc3)cc12 [Compound 12, N-(3-(6-(4-(2-(9-(3-(2,4-Dioxotetrahydropyrimidin-1(2H)-yl)benzoyl)-3,9-diazaspiro[5,5]undecan-3-yl)ethyl)phenyl)-7H-pyrrolo[2,3-d]pyrimidin-4-yl)-5-fluoro-2-methylphenyl)-2-fluoro-4-(2-hydroxypropan-2-yl)benzamide]",29.9,40.6
"Cc1c(NC(=O)c2ccc(C(C)(C)O)cc2F)cc(F)cc1-c1ncnc2[nH]c(-c3ccc(CN4CCC5(CC4)CCN(C(=O)c4ccc(F)c(N6CCC(=O)NC6=O)c4)CC5)cc3)cc12 [Compound 14, N-(3-(6-(4-((9-(3-(2,4-Dioxotetrahydropyrimidin-1(2H)-yl)-4-fluorobenzoyl)-3,9-diazaspiro[5.5]undecan-3-yl)methyl)phenyl)-7H-pyrrolo[2.3-d]pyrimidin-4-yl)-5-fluoro-2-methylphenyl)-2-fluoro-4-(2-hydroxypropan-2-yl)benzamide]",3.8,11.7
"COc1ccc(C(=O)N2CCC3(CCN(Cc4ccc(-c5cc6c(-c7cc(F)cc(NC(=O)c8ccc(C(C)(C)O)cc8F)c7C)ncnc6[nH]5)cc4)CC3)CC2)cc1N1CCC(=O)NC1=O [Compound 9, N-(3-(6-(4-((9-(3-(2,4-Dioxotetrahydropyrimidin-1(2H)-yl)-4-methoxybenzoyl)-3,9-diazaspiro[5.5]undecan-3-yl)methyl)phenyl)-7H-pyrrolo[2.3-d]pyrimidin-4-yl)-5-fluoro-2-methylphenyl)-2-fluoro-4-(2-hydroxypropan-2-yl)benzamide]",2.1,4.5
"COc1ccc(C(=O)N2CCC(CN3CCC(Oc4ccc(-c5cc6c(-c7cc(F)cc(NC(=O)c8ccc(C(C)(C)O)cc8F)c7C)ncnc6[nH]5)cc4)CC3)CC2)cc1N1CCC(=O)NC1=O [Compound 19, N-(3-(6-(4-((1-((1-(3-(2,4-Dioxotetrahydropyrimidin-1(2H)-yl)-4-methoxybenzoyl)piperidin-4-yl)methyl)piperidin-4-yl)oxyl)phenyl)-7H-pyrrolo[2,3-d]pyrimidin-4-yl)-5-fluoro-2-methylphenyl)-2-fluoro-4-(2-hydroxypropan-2-yl)benzamide]",0.6,2.7

# More lines, now with the values ahead:
DC50 [nM],BTK deg Amax [%],SMILES
1.5,4.1,"Cc1ccc(C(=O)N2CCC3(CCN(Cc4ccc(-c5cc6c(-c7cc(F)cc(NC(=O)c8ccc(C(C)(C)O)cc8F)c7C)ncnc6[nH]5)cc4)CC3)CC2)cc1N1CCC(=O)NC1=O [Compound 27, N-(3-(6-(4-((9-(3-(2,4-Dioxotetrahydropyrimidin-1(2H)-yl)-4-methylbenzoyl)-3,9-diazaspiro[5.5]undecan-3-yl)methyl)phenyl)-7H-pyrrolo[2,3-d]pyrimidin-4-yl)-5-fluoro-2-methylphenyl)-2-fluoro-4-(2-hydroxypropan-2-yl)benzamide]"
2,1.1,"COc1ccc(C(=O)N2CCC3(CC2)CCN(C(C)(C)Cc2ccc(-c4cc5c(-c6cc(F)cc(NC(=O)c7ccc(C(C)(C)O)cc7F)c6C)ncnc5[nH]4)cc2)CC3)cc1N1CCC(=O)NC1=O [Compound 20, N-(3-(6-(4-(2-(9-(3-(2,4-Dioxotetrahydropyrimidin-1(2H)-yl)-4-methoxybenzoyl)-3,9-diazaspiro[5.5]undecan-3-yl)-2-methylpropyl)phenyl)-7H-pyrrolo[2,3-d]pyrimidin-4-yl)-5-fluoro-2-methylphenyl)-2-fluoro-4-(2-hydroxypropan-2-yl)benzamide]"
3.9,1.7,"COc1ccc(C(=O)N2CCC(OC3CCN(CCc4ccc(-c5cc6c(-c7cc(F)cc(NC(=O)c8ccc(C(C)(C)O)cc8F)c7C)ncnc6[nH]5)cc4)CC3)CC2)cc1N1CCC(=O)NC1=O [Compound 34, N-(3-(6-(4-(2-(4-((1-(3-(2,4-Dioxotetrahydropyrimidin-1(2H)-yl)-4-methoxybenzoyl)piperidin-4-yl)oxyl)piperidin-1-yl)ethyl)phenyl)-7H-pyrrolo[2,3-d]pyrimidin-4-yl)-5-fluoro-2-methylphenyl)-2-fluoro-4-(2-hydroxypropan-2-yl)benzamide]"
